Reference: ChEMBL document CHEMBL4819044, “Discovery of a Hydroxypyridinone APJ Receptor Agonist as a Clinical Candidate” (J Med Chem, 2021)
Converted amounts (≈) assume the structure as drawn.

Key:
[1] = target: T1, Apelin receptor (Rattus norvegicus, UniProt Q9JHG3); assay: Agonist activity at rat APJ receptor expressed in human HEK293 cells assessed as inhibition of forskolin-induced cAMP accumulation incubated for 1 hr by TR-FRET assay; format: functional, cell-based
T1 sequence (Q9JHG3 whole entry): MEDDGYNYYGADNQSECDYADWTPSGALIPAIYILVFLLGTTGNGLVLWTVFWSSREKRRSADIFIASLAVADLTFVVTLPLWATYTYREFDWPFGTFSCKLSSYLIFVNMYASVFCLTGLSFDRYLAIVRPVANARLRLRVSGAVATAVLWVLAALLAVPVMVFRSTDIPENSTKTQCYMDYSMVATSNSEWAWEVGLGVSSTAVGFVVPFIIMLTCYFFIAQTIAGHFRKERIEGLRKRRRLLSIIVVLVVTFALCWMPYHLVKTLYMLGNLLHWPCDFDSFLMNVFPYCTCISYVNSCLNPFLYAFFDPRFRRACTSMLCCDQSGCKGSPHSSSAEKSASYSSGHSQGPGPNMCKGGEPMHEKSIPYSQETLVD

[2] = Metabolic stability in human liver microsomes assessed as parent compound remaining incubated for 10 mins in presence of NADPH by triple quadrupole mass spectrometry; format: ADME, Microsome; conditions: read-out: Stabilty
[3] = Metabolic stability in rat liver microsomes assessed as parent compound remaining incubated for 10 mins in presence of NADPH by triple quadrupole mass spectrometry; format: ADME, Microsome; conditions: read-out: Stabilty
[4] = Solubility of compound in phosphate buffer pH 7.4 using excess solid incubated for 24 hrs under agitation condition by reverse phase LC analysis; format: physicochemical
[5] = target: T2, Apelin receptor (Homo sapiens, UniProt P35414); assay: Agonist activity at human APJ receptor expressed in human HEK293 cells assessed as inhibition of forskolin-induced cAMP accumulation incubated for 1 hr by TR-FRET assay; format: functional, cell-based
T2 sequence (P35414 whole entry): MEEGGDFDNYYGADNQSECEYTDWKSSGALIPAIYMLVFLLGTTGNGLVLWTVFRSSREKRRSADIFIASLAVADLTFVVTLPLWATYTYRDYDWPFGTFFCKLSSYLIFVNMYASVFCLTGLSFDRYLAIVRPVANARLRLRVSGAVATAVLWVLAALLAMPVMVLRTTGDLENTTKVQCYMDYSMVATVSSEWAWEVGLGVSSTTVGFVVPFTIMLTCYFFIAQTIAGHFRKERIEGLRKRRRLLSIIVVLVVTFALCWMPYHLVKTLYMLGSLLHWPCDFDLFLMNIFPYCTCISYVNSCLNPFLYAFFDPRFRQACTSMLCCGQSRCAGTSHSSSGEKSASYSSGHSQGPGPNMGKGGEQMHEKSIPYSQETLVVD

[6] = target: T2, Apelin receptor; assay: Displacement of [3H]Apelin-13 from human APJ receptor stably expressed in human HEK293 cell membrane incubated for 120 mins by TopCount scintillation plate reader analysis; format: cell membranes
[7] = Half life in Sprague-Dawley rat at 3 mg/kg, po measured up to 48 hrs by LC/MS/MS analysis; conditions: in vivo
[8] = Oral bioavailability in Sprague-Dawley rat at 3 mg/kg measured measured up to 48 hrs by LC/MS/MS analysis; format: ADME, organism-based; conditions: in vivo
[9] = Half life in cynomolgus monkey at 3 mg/kg, po measured measured up to 72 hrs by LC/MS/MS analysis; conditions: in vivo
[10] = Oral bioavailability in cynomolgus monkey at 3 mg/kg measured measured up to 72 hrs by LC/MS/MS analysis; format: ADME, organism-based, Macaca fascicularis; conditions: in vivo
[11] = Renal clearance in Sprague-Dawley rat at 3 mg/kg, po measured up to 48 hrs by LC/MS/MS analysis; format: ADME, organism-based; conditions: in vivo
[12] = Stability in human liver microsomes assessed as parent compound remaining at 30 uM incubated for 45 mins; format: ADME, Microsome; conditions: read-out: Stabilty
[13] = Stability in rat liver microsomes assessed as parent compound remaining at 30 uM incubated for 45 mins; format: ADME, Microsome; conditions: read-out: Stabilty
[14] = Stability in monkey liver microsomes assessed as parent compound remaining at 30 uM incubated for 45 mins; format: ADME, Macaca mulatta, Microsome; conditions: rhesus monkey, read-out: Stabilty
[15] = Glutathione reactivity of the compound assessed as GSH-adduct formation; format: physicochemical
[16] = system: Rattus norvegicus; assay: Hemodynamic activity in Sprague-Dawley rat model of acute pressure-volume loop assessed as increase in cardiac output at 10 ug/kg/min administered as iv infusion measured at 5 mins relative to control; format: functional; conditions: dose 10 µg/kg/min
[17] = system: Rattus norvegicus; assay: Hemodynamic activity in Sprague-Dawley rat model of acute pressure-volume loop assessed as peripheral vasodilation by measuring free plasma drug concentration at 10 ug/kg/min administered as iv infusion measured at 5 mins; format: functional; conditions: dose 10 µg/kg/min
[18] = cells; conditions: Canis lupus familiaris, HEK293, 1 h
[19] = cells; conditions: Macaca mulatta, HEK293, 1 h
[20] = in vivo; conditions: Sprague-Dawley, rat, po, 3 mg/kg
Description: Cmax in Sprague-Dawley rat at 3 mg/kg, po measured up to 48 hrs by LC/MS/MS analysis

[21] = in vivo; conditions: Sprague-Dawley, rat, po, 3 mg/kg; remark: listed apart in the source
Description: AUC (0 to infinity) in Sprague-Dawley rat at 3 mg/kg, po measured up to 48 hrs by LC/MS/MS analysis

[22] = in vivo; conditions: cynomolgus monkey, po, 3 mg/kg
Description: Cmax in cynomolgus monkey at 3 mg/kg, po measured measured up to 48 hrs by LC/MS/MS analysis

[23] = in vivo; conditions: cynomolgus monkey, po, 3 mg/kg; remark: listed apart in the source
Description: AUC (0 to infinity) in cynomolgus monkey at 3 mg/kg, po measured measured up to 72 hrs by LC/MS/MS analysis

[24] = Urinary excretion in cynomolgus monkey at 3 mg/kg, po measured measured up to 72 hrs by LC/MS/MS analysis; conditions: in vivo

| Structure (SMILES) | EC50 [1] [nM] | remaining at 10 min [2] [%] | remaining at 10 min [3] [%] | solubility thermodynamic at 24 h [4] [µg/mL] | EC50 [5] [nM] | other results |
| --- | --- | --- | --- | --- | --- | --- |
| CCCCc1[nH]c(=O)c(-c2nc(Cc3ccccc3)no2)c(O)c1-c1c(OC)cccc1OC | 120 | 69 | 54 |  |  |  |
| CCCCc1[nH]c(=O)c(-c2nnc(-c3ccc(Cl)cc3)o2)c(O)c1-c1c(OC)cccc1OC | 450 | 99 | 36 |  |  |  |
| COc1cccc(OC)c1-c1c(C2CC2)[nH]c(=O)c(-c2nnc(Cc3ccc(Cl)cc3)o2)c1O | 15 | 88 | 51 | 12 (≈ 25 µM) | 11 |  |
| CCCCc1[nH]c(=O)c(-c2nnc(Cc3ccccc3)o2)c(O)c1-c1c(OC)cccc1OC | 31 | 87 | 53 |  |  |  |
| CCCCc1nc(O)c(-c2nnc(Cc3ccccc3Cl)o2)c(O)c1-c1c(OC)cccc1OC | 18 | 82 | 24 |  | 8.6 |  |
| CCCCc1[nH]c(=O)c(-c2n[nH]c(Cc3ccccc3)n2)c(O)c1-c1c(OC)cccc1OC | 430 | 36 | 15 |  |  |  |
| CCCCc1[nH]c(=O)c(C(=O)OCC)c(O)c1-c1c(OC)cccc1OC | 980 | 89 | 24 |  |  |  |

Stronger by EC50 [1], values ahead:

| EC50 [1] [nM] | remaining at 10 min [2] [%] | remaining at 10 min [3] [%] | solubility thermodynamic at 24 h [4] [µg/mL] | EC50 [5] [nM] | Structure (SMILES) | other results |
| --- | --- | --- | --- | --- | --- | --- |
| 7.3 | 88 | 38 |  | 2.6 | CCCCc1nc(O)c(-c2nnc(Cc3cccc(Cl)c3)o2)c(O)c1-c1c(OC)cccc1OC |  |
| 1.4 | 86 | 73 | 73 (≈ 147 µM) |  | COCCc1[nH]c(=O)c(-c2nnc(Cc3ccc(Cl)cc3)o2)c(O)c1-c1c(OC)cccc1OC |  |
| 1.2 | 66 | 22 | < 1 | 0.4 | CCCCc1nc(O)c(-c2nnc(Cc3ccc(Cl)cc3)o2)c(O)c1-c1c(OC)cccc1OC |  |
| 0.58 | 96 | 76 | 110 (≈ 220 µM) | 0.17 | CCOCc1[nH]c(=O)c(-c2nnc(Cc3ccc(Cl)nc3)o2)c(O)c1-c1c(OC)cccc1OC |  |
| 0.51 | 80 | 66 | 4 (≈ 7.87 µM) | 0.24 | COc1cccc(OC)c1-c1c(C2CCCC2)[nH]c(=O)c(-c2nnc(Cc3ccc(Cl)cc3)o2)c1O |  |
| 0.23 | 94 | 74 | 26 (≈ 52.2 µM) | 0.12 | CCOCc1nc(O)c(-c2nnc(Cc3ccc(Cl)cc3)o2)c(O)c1-c1c(OC)cccc1OC |  |
| 0.024 | 91 | 92 | 220 (≈ 441 µM) | 0.023 | CCOCc1nc(O)c(-c2nnc(Cc3ccc(Cl)cn3)o2)c(O)c1-c1c(OC)cccc1OC [BMS-986224] | Ki [6]: 0.074 nM; half-life at 48 h [7]: 2.5 h; bioavailability [8]: 77%; half-life at 72 h [9]: 3.6 h; bioavailability [10]: 56%; dose excreted at 48 h [11]: 4%; remaining at 0.75 h, 30 µM [12]: > 95%; remaining at 0.75 h, 30 µM [13]: > 95%; remaining at 0.75 h, 30 µM [14]: > 95%; Drug metabolism [15]: Not Active; Activity [16]: 12%; Cp(f) [17]: 18 nM; EC50 [18]: 0.03 nM; EC50 [19]: 0.08 nM; Cmax at 48 h [20]: 5.6 µM; AUC(0-inf) at 48 h [21]: 34 µM·h; Cmax at 48 h [22]: 1.5 µM; AUC(0-inf) at 72 h [23]: 15.3 µM·h; dose excreted in urine [24]: 12% |
